The values that follow come from patent US10059955B2, “Hibiscus cannabinus feruloyl-CoA:monolignol transferase” (Wisconsin Alumni Research Foundation (WARF), priority 2011, dated 2018).

The test system of data set [1] is feruloyl-CoA:monolignol transferase from Angelica sinensis. Kind of data set: FMT enzymatic assay with purified recombinant Angelica sinensis FMT (UPLC detection of product). The settings on record: for enzyme activity with monolignol as acyl acceptor substrate: feruloyl-CoA as acyl donor, FIGS. 2, 4, 5; for product formed from acyl-CoA donor substrate: coniferyl alcohol as acceptor, FIGS. 2, 6, 7. It is filed as biochemical. As for the experimental part: The feruloyl-CoA, p-coumaroyl-CoA, and caffeoyl-CoA substrates used in the FMT assay were enzymatically synthesized using the tobacco 4-coumarate-CoA-ligase (4CL) with a c-terminal HIS tag in pCRT7/CT TOPO, provided by Eran Pichersky. Following a method modified from Beuerle and Pichersky (Anal. Biochem. 302(2): 305-12 (2001)) 3.3 mg of ferulic acid, coumaric acid or caffeic acid, 2 mg coenzyme A, and 6.9 mg ATP were added to 50 mM Tris-hydrochloride pH 8 and 2.5 mM magnesium chloride in a final volume of 10 ml. The reaction was started by adding 0.25 mg 4CL, protein purified as described by the method of Beurerle and Pichershy. After a five-hour incubation at room temperature, additional 6.9 mg ATP, 2 mg coenzyme A, and 0.25 mg purified 4CL were added and the reaction was incubated overnight. The CoA esters were purified on an SPE cartridge as described in Beuerle and Pichersky (2001).
(§1) The FMT activity assay contained 100 mM MOPS pH 6.8, 1 mM dithiothreitol (DTT), 1 mM feruloyl-CoA, 1 mM coniferyl alcohol, 3.9 μg of purified FMT protein and deionized water to a volume of 50 μL. After a 30-minute incubation, 1 μL of 10 M hydrochloric acid was added to stop the reaction. Because the product synthesized in the reaction, coniferyl ferulate (CAFA), is insoluble, 50 μL of methanol was added to solubilize the CAFA. Prior to UPLC, protein and insoluble material were removed by filtering through an Amicon Ultracel 10K membrane filter (Millipore). The flow-through was analyzed using an Acquity Ultra Performance LC with an Acquity UPLC BEH C18 1.7 μm 2.1×100 mm column and the Acquity Console and Empower 2 Software, all from Waters Corporation. The solvents used in this method were solvent A, 0.1% trifluoroacetic acid, and solvent B, 100% acetonitrile. Samples were analyzed using the following gradient conditions, 13% B, for 5 minutes, 1 minute linear gradient to 42% B, held for 4 minutes, 1 minute linear gradient to 100% B, held for 1 minutes and 3 minutes at 13% B with a flow rate of 0.3 ml/minute. This method was then used to analyze a 10 μL injection of each assay reaction; standards for each of the substrates along with chemically synthesized CAFA were used to determine retention times for each compound.
Purified recombinant enzyme was assayed for FMT activity using a reaction mixture containing 2 mM coniferyl alcohol, […], 100 mM HEPES pH 7.4 and 1 mM DTT. The second most abundant BAHD acyltransferase gene when incubated with Coniferyl alcohol and feruloyl-CoA produced a compound with the retention time of authentic coniferyl ferulate (CAFA) (FIG. 2). […] The addition of methanol to 50% after stopping the enzyme with acid was required to analyze the product by UPLC. The insolubility of the product made partial purification easy as the product was separated from the substrates by centrifugation.

Data set [2] can be described thus: Solubility of the assay product coniferyl ferulate in the aqueous reaction mixture. It is filed as physicochemical. The settings on record: before addition of methanol to 50%. The procedure: as §1, with “compound. […]” for “compound.”
In data set [3] the test system is Angelica sinensis feruloyl-CoA:monolignol transferase. Kind of data set: FMT enzyme assay of transgenic Arabidopsis stems. It is filed as biochemical. The following applies: none with empty vector, FIG. 11B. An excerpt:
Arabidopsis were transformed by standard procedures with the Angelica sinensis feruloyl-CoA:monolignol transferase nucleic acids described herein. […] FMT expression was detected by Reverse Transcriptase PCR of […] isolated from the transgenic Arabidopsis leaves. Enzymatic activity by the expressed FMT was detected using the assay described in Example 1.

The next data set relates to Angelica sinensis FMT. Kind of data set: FMT enzyme assay of transgenic poplar leaf extracts. The settings on record: extracts from transgenic hybrid poplar expressing YFP-FMT; none in wild type or no enzyme control; FIG. 10B. It counts as biochemical. An excerpt:
Hybrid poplar (Populus alba×grandidentata) was transformed using Agrobacterium tumefaciens EHA105 employing a common leaf disk inoculation. Two constructs were created to drive the expression of FMT in poplar: 1) 35S::YFP-FMT (cauliflower mosaic virus ubiquitous 35S promoter with an N-terminal tagged Yellow Fluorescent Protein), and 2) CesA8::YFP-FMT (poplar xylem-specific secondary cell wall specific cellulose synthase 8 promoter with an N-terminal tagged Yellow Fluorescent Protein). The binary plasmids were inserted into EHA105 using the freeze-thaw technique, and incubated overnight in liquid Woody Plant Media (WPM) supplemented with 100 μM acetosyringone. Leaf disks were cut and co-cultured with EHA105 for one hour at room temperature, blotted dry and plated abaxailly onto WPM supplemented with 0.1 μM each α-naphthalene acetic acid (NAA), 6-benzylaminopurine (BA), and thiadiazuron (TDZ) and solidified with 3% (w/v) agar and 1.1% (w/v) phytagel (WPM 0.1/0.1/0.1). […]
Purification of YFP-FMT was via GFPtrap_A (Chromotek) following the manufactures guidelines. […] These samples were analyzed by western blot and the UPLC method described in the Examples above. Formation of coniferyl ferulate was also detected by comparison of the UPLC traces of leaf extracts with authentic coniferyl ferulate.

For a further data set, the system named is Hibiscus cannabinus FMT. Kind of data set: FMT enzymatic assay with purified Kenaf FMT (UPLC detection of coniferyl ferulate). It is filed as biochemical. The settings on record: Ni2+ column fractions 29 and 30; 1 mM feruloyl CoA, 1 mM coniferyl alcohol, pH 6, 45 min; FIG. 12B. As for the experimental part: The feruloyl CoA, p-coumaroyl CoA, and caffeoyl CoA substrates used in the FMT assay were enzymatically synthesized using the tobacco 4-coumarate CoA-ligase (4CL) with a c-terminal HIS tag in pCRT7/CT TOPO. Following a method modified from Beuerle and Pichersky (2001) 3.3 mg of ferulic acid, coumaric acid or caffeic acid, 2 mg coenzyme A, and 6.9 mg ATP were 50 mM Tris-hydrochloride pH 8, 2.5 mM magnesium chloride in a final volume of 10 ml. The reaction was started by adding 0.25 mg 4CL protein, purified as described by the method of Beurerle and Pichershy. After a five-hour incubation at room temperature, an additional 6.9 mg ATP, 2 mg coenzyme A, and 0.25 mg purified 4CL were added and the reaction was incubated overnight. […]
The FMT activity assay contained 100 mM sodium phosphate buffer pH 6, 1 mM dithiothreitol (DTT), 1 mM feruloyl CoA, 1 mM coniferyl alcohol, 0.5 μg of purified Kenaf FMT protein and deionized water to a volume of 50 μLL. […] The flow-through was analyzed using an Acquity Ultra Performance LC with an Acquity UPLC BEH C18 1.7 μm 2.1×100 mm column and the Acquity Console and Empower 2 Software, all from Waters Corporation. […] Samples were analyzed using the following gradient conditions, 13% B, for 5 minutes, 1 minute linear gradient to 42% B, held for 4 minutes, 1 minute linear gradient to 100% B, held for 1 minute and 3 minutes at 13% B with a flow rate of 0.3 ml/minute. […]

“Also recorded” adds a separate entry of the source.

`COc1cc(/C=C/CO)cc(OC)c1O` [sinapyl alcohol]: the “enzyme activity with monolignol as acyl acceptor substrate” value (“enzyme activity with monolignol” for short) in data set [1] is on record as “active”. Consider `COc1cc(/C=C/C(=O)SCCNC(=O)CCNC(=O)[C@H](O)C(C)(C)COP(=O)(O)OP(=O)(O)OC[C@H]2O[C@@H](n3cnc4c(N)ncnc43)[C@H](O)[C@@H]2OP(=O)(O)O)ccc1O` [feruloyl-CoA], for which, in data set [1], the “product formed from acyl-CoA donor substrate” value (from here on “product formed”) is given as “substantial product”. Turning to `OC/C=C/c1ccc(O)cc1` [p-coumaryl alcohol], the “enzyme activity with monolignol” value in data set [1] is “active”. Take `COc1cc(/C=C/COC(=O)/C=C/c2ccc(O)c(OC)c2)ccc1O` [coniferyl ferulate]: the “solubility of product in water / assay mixture” value in data set [2] is given as “mostly insoluble in water; also recorded: partially insoluble”. Take `CC(C)(COP(=O)(O)OP(=O)(O)OC[C@H]1O[C@@H](n2cnc3c(N)ncnc32)[C@H](O)[C@@H]1OP(=O)(O)O)[C@@H](O)C(=O)NCCC(=O)NCCSC(=O)/C=C/c1ccc(O)cc1` [p-coumaroyl-CoA]: in data set [1], the “product formed” value was “very little product”.

For the molecule `CC(C)(COP(=O)(O)OP(=O)(O)OC[C@H]1O[C@@H](n2cnc3c(N)ncnc32)[C@H](O)[C@@H]1OP(=O)(O)O)[C@@H](O)C(=O)NCCC(=O)NCCSC(=O)/C=C/c1ccc(O)c(O)c1` [caffeoyl-CoA], the “product formed” value in data set [1] was “very little product”.

Regarding `COc1cc(/C=C/CO)ccc1O` [coniferyl alcohol], the “enzyme activity with monolignol” value in data set [1] was “active”.

B1: Angelica sinensis FMT: Angelica sinensis clone Dq155 pdest17 feruloyl-CoA:monolignol transferase enzyme, SEQ ID NO:2 (protein)
chain: MTIMEVQVVSKKMVKPSVPTPDHHKTCKLTAFDQIAPPDQVPIIYFYNSSNIHNIREQLVKSLSETLTKFYPLAGRFVQDGFYVDCNDEGVLYVEAEVNIPLNEFIGQAKKNIQLINDLVPKKNFKDIHSYENPIVGLQMSYFKCGGLAICMYLSHVVADGYTAAAFTKEWSNTTNGIINGDQLVSSSPINFELATLVPARDLSTVIKPAVMPPSKIKETKVVTRRFLFDENAISAFKDHVIKSESVNRPTRVEVVTSVLWKALINQSKLPSSTLYFHLNFRGKTGINTPPLDNHFSLCGNFYTQVPTRFRGGNQTKQDLELHELVKLLRGKLRNTLKNCSEINTADGLFLEAASNFNIIQEDLEDEQVDVRIFTTLCRMPLYETEFGWGKPEWVTIPEMHLEIVFLLDTKCGTGIEALVSMDEADMLQFELDPTISAFAS
Turning to B1, the “FMT activity in ground stems (coniferyl ferulate detected)” value in data set [3] is recorded as “enzymatically active”. Further, the “FMT activity in leaf extracts (product peak at retention time of authentic coniferyl ferulate)” value with Angelica sinensis FMT is “FMT activity was identified”.

B2: Hibiscus cannabinus FMT: Hibiscus cannabinus (Kenaf) feruloyl-CoA:monolignol transferase enzyme, SEQ ID NO:9, expressed with N-terminal 6xHis tag in E. coli (protein)
chain: MATHSTIMFSVDRNDVVFVKPFKPTPSQVLSLSTIDNDPNLEIMCHTVFVYQANADFDVKPKDPASIIQEALSKLLVYYYPLAGKMKRETDGKLRIACTADDSVPFLVATADCKLSSLNHLDGIDVHTGKEFALDFASESDGGYYHPLVMQVTKFICGGFTIALSLSHSVCDGFGAAQIFQALTELASGRNEPSVKPVWERQLLVAKPAEEIPRSIVDKDLSAASPYLPTTDIVHACFYVTEESIKTLKMNLIKESKDESITSLEVLSAYIWRARFRALKLSPDKTTMLGMAVGIRRTVKPRLPEGYYGNAFTSANTAMTGKELDQGPLSKAVKQIKESKKLASENDYIWNLMSINEKLRELNSKFEAAAGSTMVITDWRRLGLLEDVDFGWKGSVNMIPLPWNMFGYVDLVLLLPPCKLDQSMKGGARVLVSFPTAAIAKFKEEMDALKHDNKVAGDALVI
modifications: N-terminal 6xHis tag
As for B2, in the data set with Hibiscus cannabinus FMT, the “FMT activity: production of coniferyl ferulate from coniferyl alcohol and feruloyl-CoA” value is “production of coniferyl ferulate (3) is visible”.
